The assay has as its system MV-4-11 cells. Nature of the assay: Cell Viability Assay in MV-4-11 Cells. Format: cell-based. As to conditions: Homo sapiens, MV4-11, 72 h, MV-4-11 cells, 72 h, Cell-Titer Glo; read-out: IC50. The method, boiled down: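 Luminescent ATP read-out (CellTiter-Glo) after 72 h compound treatment of MV-4-11 leukaemia cells (7,000 per well, IMDM plus 10% FBS). Values expressed relative to DMSO control and derived by four-parameter non-linear regression.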
Take `Cn1cc(/C=C/c2ccnc(N(C(=O)c3ccc(-n4nnc5cccnc54)cc3F)[C@@H]3CCCNC3)c2)cn1` [Example 430, 2-fluoro-N-[4-[(E)-2-(1-methylpyrazol-4-yl)vinyl]-2-pyridyl]-N-[(3R)-3-piperidyl]-4-(triazolo[4,5-b]pyridin-3-yl)benzamide]: the 50% inhibitory concentration (IC50) (commonly the concentration that inhibits the measured activity by half) is 650 nM. As for `O=C(c1ccc(-n2nnc3cccnc32)cc1F)N(c1cc(/C=C/c2cccnc2)ccn1)[C@@H]1CCCNC1` [Example 431, 2-fluoro-N-[(3R)-3-piperidyl]-N-[4-[(E)-2-(3-pyridyl)vinyl]-2-pyridyl]-4-(triazolo[4,5-b]pyridin-3-yl)benzamide], the figure is 2300 nM; as for `Cc1cccc2ccnc(N(C(=O)c3ccc(-c4nnc5n4CCCC5)cc3F)[C@@H]3CCCNC3)c12` [Example 432, (R)-2-fluoro-N-(8-methylisoquinolin-1-yl)-N-(piperidin-3-yl)-4-(5,6,7,8-tetrahydro-[1,2,4]triazolo[4,3-a]pyridin-3-yl)benzamide], 400 nM; as for `O=C(c1ccc(Nc2ncccn2)cc1F)N(c1nccc2sc(-c3ccncc3)cc12)[C@@H]1CCCNC1` [Example 433], 26 nM. Take `O=C(c1ccc(-n2nnc3cccnc32)cc1F)N(c1nccc2sc(-c3ccc4ncnn4c3)cc12)[C@@H]1CCCNC1` [Example 434, (R)-4-(3H-[1,2,3]triazolo[4,5-b]pyridin-3-yl)-N-(2-([1,2,4]triazolo[1,5-a]pyridin-6-yl)thieno[3,2-c]pyridin-4-yl)-2-fluoro-N-(piperidin-3-yl)benzamide]: the IC50 was 91 nM.

`O=C(c1ccc(-n2nnc3cccnc32)cc1F)N(c1nccc2sc(-c3cnn(-c4ccccn4)c3)cc12)[C@@H]1CCCNC1` [Example 435, 2-fluoro-N-[(3R)-3-piperidyl]-N-[2-[1-(2-pyridyl)pyrazol-4-yl]thieno[3,2-c]pyridin-4-yl]-4-(triazolo[4,5-b]pyridin-3-yl)benzamide]: the half-inhibitory concentration (IC50) is 300 nM.

Regarding `CCn1cc(-c2cc3c(N(C(=O)c4ccc(-n5nnc6cccnc65)cc4F)[C@@H]4CCCNC4)nccc3s2)cn1` [Example 436, N-[2-(1-ethylpyrazol-4-yl)thieno[3,2-c]pyridin-4-yl]-2-fluoro-N-[(3R)-3-piperidyl]-4-(triazolo[4,5-b]pyridin-3-yl)benzamide], the IC50 was determined as 270 nM. In the case of `CC(C)n1cc(-c2cc3c(N(C(=O)c4ccc(-n5nnc6cccnc65)cc4F)[C@@H]4CCCNC4)nccc3s2)cn1` [Example 437, (R)-4-(3H-[1,2,3]triazolo[4,5-b]pyridin-3-yl)-2-fluoro-N-(2-(1-isopropyl-1H-pyrazol-4-yl)thieno[3,2-c]pyridin-4-yl)-N-(piperidin-3-yl)benzamide] it was 380 nM; in that of `Cn1ccc(-c2cc3c(N(C(=O)c4ccc(-n5nnc6cccnc65)cc4F)[C@@H]4CCCNC4)nccc3s2)n1` [Example 438, 2-fluoro-N-[2-(1-methylpyrazol-3-yl)thieno[3,2-c]pyridin-4-yl]-N-[(3R)-3-piperidyl]-4-(triazolo[4,5-b]pyridin-3-yl)benzamide], 220 nM.

As to `CC(C)n1nccc1-c1ccc2c(N(C(=O)c3ccc(-n4nnc5cccnc54)cc3F)[C@@H]3CCCNC3)nccc2c1` [Example 439, (R)-4-(3H-[1,2,3]triazolo[4,5-b]pyridin-3-yl)-2-fluoro-N-(6-(1-isopropyl-1H-pyrazol-5-yl)isoquinolin-1-yl)-N-(piperidin-3-yl)benzamide], the IC50 was determined as 1200 nM. In the case of `O=C(c1ccc(-n2nnc3cccnc32)cc1F)N(c1nccc2cc(-c3cc[nH]c(=O)c3)ccc12)[C@@H]1CCCNC1` [Example 440, (R)-4-(3H-[1,2,3]triazolo[4,5-b]pyridin-3-yl)-2-fluoro-N-(6-(2-oxo-1,2-dihydropyridin-4-yl)isoquinolin-1-yl)-N-(piperidin-3-yl)benzamide] it was 290 nM; in that of `Cc1cccc2ccnc(N(C(=O)c3ccc(-c4cn(C)nn4)cc3F)[C@H]3CNCC[C@@H]3C)c12` [Example 441, 2-fluoro-N-(8-methyl-1-isoquinolyl)-N-[(3R, 4S)-4-methyl-3-piperidyl]-4-(1-methyltriazol-4-yl) benzamide], 120 nM; in that of `NC(=O)/C=C/c1cc2c(N(C(=O)c3ccc(-n4nnc5cccnc54)cc3F)[C@@H]3CCCNC3)nccc2s1` [Example 442, N-[2-[(E)-3-amino-3-oxo-prop-1-enyl]thieno[3,2-c]pyridin-4-yl]-2-fluoro-N-[(3R)-3-piperidyl]-4-(triazolo[4,5-b]pyridin-3-yl)benzamide], 1000 nM. As for `Cc1ncc(-c2cc3c(N(C(=O)c4ccc(-n5nnc6cccnc65)cc4F)[C@@H]4CCCNC4)nccc3s2)s1` [Example 443, 2-fluoro-N-[2-(2-methylthiazol-5-yl)thieno[3,2-c]pyridin-4-yl]-N-[(3R)-3-piperidyl]-4-(triazolo[4,5-b]pyridin-3-yl)benzamide], the figure is 300 nM.

In the case of `Cc1cc(Cl)cc2ccnc(N(C(=O)c3ccc(-c4cn(C)nn4)cc3F)[C@@H]3CCCNC3)c12` [Example 444, N-(6-chloro-8-methyl-1-isoquinolyl)-2-fluoro-4-(1-methyltriazol-4-yl)-N-[(3R)-3-piperidyl] benzamide], the IC50 turned out to be 6.9 nM.

As for `Cn1cc(-c2ccc3c(N(C(=O)c4ccc(-c5cn(C)nn5)cc4F)[C@@H]4CCCNC4)nccc3c2)cn1` [Example 445, (R)-2-fluoro-4-(1-methyl-1H-1,2,3-triazol-4-yl)-N-(6-(1-methyl-1H-pyrazol-4-yl)isoquinolin-1-yl)-N-(piperidin-3-yl)benzamide], the half-inhibitory concentration (IC50) is 290 nM. For the compound `NS(=O)(=O)c1cccc(-c2cc3c(N(C(=O)c4ccc(-n5nnc6cccnc65)cc4F)[C@@H]4CCCNC4)nccc3s2)c1` [Example 446, 2-fluoro-N-[(3R)-3-piperidyl]-N-[2-(3-sulfamoylphenyl)thieno[3,2-c]pyridin-4-yl]-4-(triazolo[4,5-b]pyridin-3-yl)benzamide], the IC50 was found to be 1900 nM. In the case of `NC(=O)Cc1cccc(-c2cc3c(N(C(=O)c4ccc(-n5nnc6cccnc65)cc4F)[C@@H]4CCCNC4)nccc3s2)c1` [Example 447, N-[2-[3-(2-amino-2-oxo-ethyl)phenyl]thieno[3,2-c]pyridin-4-yl]-2-fluoro-N-[(3R)-3-piperidyl]-4-(triazolo[4,5-b]pyridin-3-yl)benzamide] it was 110 nM. `NC(=O)c1ccc(-c2cc3c(N(C(=O)c4ccc(-n5nnc6cccnc65)cc4F)[C@@H]4CCCNC4)nccc3s2)cc1` [Example 448, N-[2-(4-carbamoylphenyl)thieno[3,2-c]pyridin-4-yl]-2-fluoro-N-[(3R)-3-piperidyl]-4-(triazolo[4,5-b]pyridin-3-yl)benzamide]: the IC50 came to 52 nM. As for `O=C(c1ccc(-n2nnc3cccnc32)cc1F)N(c1nccc2sc(-c3cccc(-c4ncco4)c3)cc12)[C@@H]1CCCNC1` [Example 449, 2-fluoro-N-[2-(3-oxazol-2-ylphenyl)thieno [3,2-c]pyridin-4-yl]-N-[(3R)-3-piperidyl]-4-(triazolo [4,5-b]pyridin-3-yl) benzamide], the figure is 940 nM. As for `O=C(c1ccc(-n2nnc3cccnc32)cc1F)N(c1nccc2sc(-c3nc4ccccn4n3)cc12)[C@@H]1CCCNC1` [Example 450, 2-fluoro-N-[(3R)-3-piperidyl]-N-[2-([1,2,4]triazolo[1,5-a]pyridin-2-yl)thieno[3,2-c]pyridin-4-yl]-4-(triazolo[4,5-b]pyridin-3-yl)benzamide], the figure is 300 nM.

The values are drawn from patent US20240400555A1 (Initial Therapeutics, Inc., priority 2023, published 2024).
